Assay: Bulk density, tapped density and Carr Index (flowability) of raw materials and granules
Description: The Carr Index is calculated by the formula 100×(1-BD/TD) and is used as an indication of the flowability.

Description (physical characterization of powder): very lumpy
Structure (SMILES): COc1ccc2cc([C@H](C)C(=O)O)ccc2c1 [Naproxen Sodium, naproxen sodium]

From patent US20220280461A1, “SOLID ORAL DOSAGE FORM COMPRISING NAPROXEN AND VITAMIN B12” (DSM IP ASSETS B.V., priority 2019, published 2022)
